Residues, ends and D or L forms follow the SMILES beside them. *: point of attachment. Propionyl = CCC(=O)*
Columns and labels:
[1] = Independent determination of the potency of the standard salmon calcitonin; settings: standard used in the rat assay, independently determined
Method: The biological potency of [N-alpha-Propionyl-1,7-Di-Ala,Des-19-Leu] salmon calcitonin was determined by comparing the reduction of serum calcium concentration which followed administration by graded doses of [N-alpha-Propionyl-1,7-Di-Ala,Des-19-Leu] SCT and synthetic salmon calcitonin standard. Rats were divided into four groups of seven animals, and each group was assigned at random to a dose of standard or test solution. Low and high doses were chosen from the linear portion of the dose-response curve. For the salmon calcitonin standard, the values were 0.7 and 2.1 mcg. peptide/100 g. BW. Peptides were given by subcutaneous injection (0.2 ml/100 g. BW) and blood was withdrawn 1 hour later for serum calcium determination. Sera are processed and analyzed within two hours of collection. […]. Results were analyzed by a 2×2 parallel line assay [Gaddum, J. H., J. Pharm. Pharmacol., 6, 345 (1953)]. The standard salmon calcitonin used was independently determined to contain greater than 4,000 IU/mg.

[2] = tested on: serum calcium concentration; settings: rat, in vivo, sc
Method: SCT and synthetic salmon calcitonin standard. Rats were divided into four groups of seven animals, and each group was assigned at random to a dose of standard or test solution. Low and high doses were chosen from the linear portion of the dose-response curve. For the salmon calcitonin standard, the values were 0.7 and 2.1 mcg. peptide/100 g. BW. Peptides were given by subcutaneous injection (0.2 ml/100 g. BW) and blood was withdrawn 1 hour later for serum calcium determination. Sera are processed and analyzed within two hours of collection. Results were analyzed within two hours of collection.

Compound	potency content of standard salmon calcitonin [1]	Potency [2]
Salmon calcitonin [standard salmon calcitonin]	greater than 4,000 IU/mg	–
CCC(=O)N[C@@H](C)C(=O)N[C@@H](CO)C(=O)N[C@@H](CC(N)=O)C(=O)N[C@@H](CC(C)C)C(=O)N[C@@H](CO)C(=O)N[C@H](C(=O)N[C@@H](C)C(=O)N[C@H](C(=O)N[C@@H](CC(C)C)C(=O)NCC(=O)N[C@@H](CCCCN)C(=O)N[C@@H](CC(C)C)C(=O)N[C@@H](CO)C(=O)N[C@@H](CCC(N)=O)C(=O)N[C@@H](CCC(=O)O)C(=O)N[C@@H](CC(C)C)C(=O)N[C@@H](Cc1c[nH]cn1)C(=O)N[C@@H](CCCCN)C(=O)N[C@@H](CCC(N)=O)C(=O)N[C@H](C(=O)N[C@@H](Cc1ccc(O)cc1)C(=O)N1CCC[C@H]1C(=O)N[C@@H](CCCNC(=N)N)C(=O)N[C@H](C(=O)N[C@@H](CC(N)=O)C(=O)N[C@H](C(=O)NCC(=O)N[C@@H](CO)C(=O)NCC(=O)N[C@H](C(=O)N1CCC[C@H]1C(N)=O)[C@@H](C)O)[C@@H](C)O)[C@@H](C)O)[C@@H](C)O)C(C)C)[C@@H](C)O [N--Alpha-Propionyl, [N alpha-Propionyl, 1,7-Di-Alanine, Des-19-Leucine] salmon calcitonin] (Propionyl-ASNLSTAVLGKLSQELHKQTYPRTNTGSGTP-NH2)	–	7600 Iu/mg
CCC(=O)N[C@@H](CO)C(=O)N[C@@H](CC(N)=O)C(=O)N[C@@H](CC(C)C)C(=O)N[C@@H](CO)C(=O)N[C@H](C(=O)N[C@@H](C)C(=O)N[C@H](C(=O)N[C@@H](CC(C)C)C(=O)NCC(=O)N[C@@H](CCCCN)C(=O)N[C@@H](CC(C)C)C(=O)N[C@@H](CO)C(=O)N[C@@H](CCC(N)=O)C(=O)N[C@@H](CCC(=O)O)C(=O)N[C@@H](CC(C)C)C(=O)N[C@@H](Cc1c[nH]cn1)C(=O)N[C@@H](CCCCN)C(=O)N[C@@H](CCC(N)=O)C(=O)N[C@H](C(=O)N[C@@H](Cc1ccc(O)cc1)C(=O)N1CCC[C@H]1C(=O)N[C@@H](CCCNC(=N)N)C(=O)N[C@H](C(=O)N[C@@H](CC(N)=O)C(=O)N[C@H](C(=O)NCC(=O)N[C@@H](CO)C(=O)NCC(=O)N[C@H](C(=O)N1CCC[C@H]1C(N)=O)[C@@H](C)O)[C@@H](C)O)[C@@H](C)O)[C@@H](C)O)C(C)C)[C@@H](C)O [Des-1-Amino] (Propionyl-SNLSTAVLGKLSQELHKQTYPRTNTGSGTP-NH2)	–	7300 Iu/mg
CC(C)C[C@H](NC(=O)[C@H](CCCCN)NC(=O)CNC(=O)[C@H](CC(C)C)NC(=O)[C@@H](NC(=O)[C@H](C)NC(=O)[C@@H](NC(=O)[C@H](CO)NC(=O)[C@H](CC(C)C)NC(=O)[C@H](CC(N)=O)NC(=O)[C@H](CO)NC(=O)[C@H](C)N)[C@@H](C)O)C(C)C)C(=O)N[C@@H](CO)C(=O)N[C@@H](CCC(N)=O)C(=O)N[C@@H](CCC(=O)O)C(=O)N[C@@H](CC(C)C)C(=O)N[C@@H](Cc1c[nH]cn1)C(=O)N[C@@H](CCCCN)C(=O)N[C@@H](CCC(N)=O)C(=O)N[C@H](C(=O)N[C@@H](Cc1ccc(O)cc1)C(=O)N1CCC[C@H]1C(=O)N[C@@H](CCCNC(=N)N)C(=O)N[C@H](C(=O)N[C@@H](CC(N)=O)C(=O)N[C@H](C(=O)NCC(=O)N[C@@H](CO)C(=O)NCC(=O)N[C@H](C(=O)N1CCC[C@H]1C(N)=O)[C@@H](C)O)[C@@H](C)O)[C@@H](C)O)[C@@H](C)O [Parent, [1,7 Di-Alanine, Des-19-Leucine]Salmon Calcitonin] (H-ASNLSTAVLGKLSQELHKQTYPRTNTGSGTP-NH2)	–	7400 Iu/mg
